# Laboratory results taken from ChEMBL document CHEMBL2413072, “Synthesis and in vitro anticancer studies of novel C-2 arylidene congeners of lantadenes” (2013).
# Columns and labels:
# Type in all cases: functional
# DU-145 [1] = test: Growth inhibition of human DU145 cells assessed as growth inhibition at 10 uM by sulforhodamine B assay; conditions: read-out: GI
# CCRF-CEM = test: Growth inhibition of human CCRF-CEM cells assessed as cell growth at 10 uM by sulforhodamine B assay; conditions: read-out: Activity
# SN12C [2] = test: Growth inhibition of human SN12C cells assessed as cell growth at 10 uM by sulforhodamine B assay; conditions: read-out: Activity
# SNB-19 = test: Growth inhibition of human SNB19 cells assessed as growth inhibition at 10 uM by sulforhodamine B assay; conditions: read-out: GI
# HOP-62 = test: Growth inhibition of human HOP62 cells assessed as growth inhibition at 10 uM by sulforhodamine B assay; conditions: read-out: GI
# UO-31 = test: Growth inhibition of human UO31 cells assessed as growth inhibition at 10 uM by sulforhodamine B assay; conditions: read-out: GI
# UACC-257 = test: Growth inhibition of human UACC257 cells assessed as cell growth at 10 uM by sulforhodamine B assay; conditions: read-out: Activity
# 786-0 = test: Growth inhibition of human 786-0 cells assessed as growth inhibition at 10 uM by sulforhodamine B assay; conditions: read-out: GI
# SF-268 = test: Growth inhibition of human SF268 cells assessed as growth inhibition at 10 uM by sulforhodamine B assay; conditions: read-out: GI
# U-251 [3] = test: Growth inhibition of human U251 cells assessed as growth inhibition at 10 uM by sulforhodamine B assay; conditions: read-out: GI
# CAKI-1 [4] = test: Growth inhibition of human CAKI-1 cells assessed as cell growth at 10 uM by sulforhodamine B assay; conditions: read-out: Activity
# NCI-H522 [5] = test: Growth inhibition of human NCI-H522 cells assessed as growth inhibition at 10 uM by sulforhodamine B assay; conditions: read-out: GI
# [6] = Growth inhibition of human NCI-ADR-RES cells assessed as growth inhibition at 10 uM by sulforhodamine B assay; conditions: read-out: GI
# DU-145 [7] = test: Growth inhibition of human DU145 cells assessed as cell growth at 10 uM by sulforhodamine B assay; conditions: read-out: Activity
# SF-295 = test: Growth inhibition of human SF295 cells assessed as growth inhibition at 10 uM by sulforhodamine B assay; conditions: read-out: GI
# U-251 [8] = test: Growth inhibition of human U251 cells assessed as cell growth at 10 uM by sulforhodamine B assay; conditions: read-out: Activity
# HCT-116 = test: Growth inhibition of human HCT116 cells assessed as growth inhibition at 10 uM by sulforhodamine B assay; conditions: read-out: GI
# MDA-MB-231 = test: Growth inhibition of human MDA-MB-231 cells assessed as growth inhibition at 10 uM by sulforhodamine B assay; conditions: read-out: GI
# SK-OV-3 [9] = test: Growth inhibition of human SKOV3 cells assessed as cell growth at 10 uM by sulforhodamine B assay; conditions: read-out: Activity
# SK-MEL-28 [10] = test: Growth inhibition of human SK-MEL-28 cells assessed as cell growth at 10 uM by sulforhodamine B assay; conditions: read-out: Activity
# ACHN = test: Growth inhibition of human ACHN cells assessed as growth inhibition at 10 uM by sulforhodamine B assay; conditions: read-out: GI
# A549 [11] = test: Growth inhibition of human A549/ATCC cells assessed as growth inhibition at 10 uM by sulforhodamine B assay; conditions: read-out: GI
# KM12 = test: Growth inhibition of human KM12 cells assessed as growth inhibition at 10 uM by sulforhodamine B assay; conditions: read-out: GI
# A498 = test: Growth inhibition of human A498 cells assessed as growth inhibition at 10 uM by sulforhodamine B assay; conditions: read-out: GI
# T47D = test: Growth inhibition of human T47D cells assessed as cell growth at 10 uM by sulforhodamine B assay; conditions: read-out: Activity
# NCI-H226 = test: Growth inhibition of human NCI-H226 cells assessed as cell growth at 10 uM by sulforhodamine B assay; conditions: read-out: Activity
# SK-MEL-2 = test: Growth inhibition of human SK-MEL-2 cells assessed as cell growth at 10 uM by sulforhodamine B assay; conditions: read-out: Activity
# NCI-H23 = test: Growth inhibition of human NCI-H23 cells assessed as cell growth at 10 uM by sulforhodamine B assay; conditions: read-out: Activity
# SK-MEL-28 [12] = test: Growth inhibition of human SK-MEL-28 cells assessed as growth inhibition at 10 uM by sulforhodamine B assay; conditions: read-out: GI
# MDA-MB-435 = test: Growth inhibition of human MDA-MB-435 cells assessed as growth inhibition at 10 uM by sulforhodamine B assay; conditions: read-out: GI
# MCF7 = test: Growth inhibition of human MCF7 cells assessed as cell growth at 10 uM by sulforhodamine B assay; conditions: read-out: Activity
# [13] = Growth inhibition of human Hs 578T cells assessed as cell growth at 10 uM by sulforhodamine B assay; conditions: read-out: Activity
# NCI-H322M = test: Growth inhibition of human NCI-H322M cells assessed as cell growth at 10 uM by sulforhodamine B assay; conditions: read-out: Activity
# OVCAR-5 = test: Growth inhibition of human OVCAR5 cells assessed as cell growth at 10 uM by sulforhodamine B assay; conditions: read-out: Activity
# CAKI-1 [14] = test: Growth inhibition of human CAKI-1 cells assessed as growth inhibition at 10 uM by sulforhodamine B assay; conditions: read-out: GI
# HL-60(TB) = test: Growth inhibition of human HL-60(TB) cells assessed as cell growth at 10 uM by sulforhodamine B assay; conditions: read-out: Activity
# BT-549 = test: Growth inhibition of human BT549 cells assessed as cell growth at 10 uM by sulforhodamine B assay; conditions: read-out: Activity
# SN12C [15] = test: Growth inhibition of human SN12C cells assessed as growth inhibition at 10 uM by sulforhodamine B assay; conditions: read-out: GI
# NCI-H522 [16] = test: Growth inhibition of human NCI-H522 cells assessed as cell growth at 10 uM by sulforhodamine B assay; conditions: read-out: Activity
# MDA-MB-468 [17] = test: Growth inhibition of human MDA-MB-468 cells assessed as cell growth at 10 uM by sulforhodamine B assay; conditions: read-out: Activity
# TK-10 = test: Growth inhibition of human TK10 cells assessed as cell growth at 10 uM by sulforhodamine B assay; conditions: read-out: Activity
# SK-OV-3 [18] = test: Growth inhibition of human SKOV3 cells assessed as growth inhibition at 10 uM by sulforhodamine B assay; conditions: read-out: GI
# SF-539 = test: Growth inhibition of human SF539 cells assessed as growth inhibition at 10 uM by sulforhodamine B assay; conditions: read-out: GI
# SW-620 = test: Growth inhibition of human SW620 cells assessed as cell growth at 10 uM by sulforhodamine B assay; conditions: read-out: Activity
# MOLT-4 = test: Growth inhibition of human MOLT4 cells assessed as growth inhibition at 10 uM by sulforhodamine B assay; conditions: read-out: GI
# MDA-MB-468 [19] = test: Growth inhibition of human MDA-MB-468 cells assessed as growth inhibition at 10 uM by sulforhodamine B assay; conditions: read-out: GI
# HCT-15 = test: Growth inhibition of human HCT15 cells assessed as cell growth at 10 uM by sulforhodamine B assay; conditions: read-out: Activity
# A549 [20] = test: Growth inhibition of human A549/ATCC cells assessed as cell growth at 10 uM by sulforhodamine B assay; conditions: read-out: Activity
# COLO 205 = test: Growth inhibition of human COLO205 cells assessed as cell growth at 10 uM by sulforhodamine B assay; conditions: read-out: Activity
compound,measurement,setting,value
CC(C)=CC(=O)O[C@@H]1CC(C)(C)C[C@H]2C3=CC[C@@H]4[C@@]5(C)CC[C@H](O)C(C)(C)[C@@H]5CC[C@@]4(C)[C@]3(C)CC[C@@]12C(=O)O [Reduced Lantadene B],inhibition of growth at 10 µM,DU-145 [1],13.4%
same,growth at 10 µM,CCRF-CEM,27.4%
same,growth at 10 µM,SN12C [2],50.9%
same,inhibition of growth at 10 µM,SNB-19,14.4%
same,inhibition of growth at 10 µM,HOP-62,46.3%
same,inhibition of growth at 10 µM,UO-31,39.1%
same,growth at 10 µM,UACC-257,92.7%
same,inhibition of growth at 10 µM,786-0,38.2%
same,inhibition of growth at 10 µM,SF-268,< 10%
same,inhibition of growth at 10 µM,U-251 [3],60.8%
same,growth at 10 µM,CAKI-1 [4],35.6%
same,inhibition of growth at 10 µM,NCI-H522 [5],32.4%
same,inhibition of growth at 10 µM,[6],45.5%
same,growth at 10 µM,DU-145 [7],86.6%
same,inhibition of growth at 10 µM,SF-295,55.4%
same,growth at 10 µM,U-251 [8],39.2%
same,inhibition of growth at 10 µM,HCT-116,72.8%
same,inhibition of growth at 10 µM,MDA-MB-231,18.7%
same,growth at 10 µM,SK-OV-3 [9],89.4%
same,growth at 10 µM,SK-MEL-28 [10],88.3%
same,inhibition of growth at 10 µM,ACHN,53.7%
same,inhibition of growth at 10 µM,A549 [11],76.5%
same,inhibition of growth at 10 µM,KM12,65.7%
same,inhibition of growth at 10 µM,A498,< 10%
same,growth at 10 µM,T47D,86.7%
same,growth at 10 µM,NCI-H226,78.7%
same,growth at 10 µM,SK-MEL-2,86.5%
same,growth at 10 µM,NCI-H23,63.4%
same,inhibition of growth at 10 µM,SK-MEL-28 [12],11.7%
same,inhibition of growth at 10 µM,MDA-MB-435,< 10%
same,growth at 10 µM,MCF7,62.7%
same,growth at 10 µM,[13],85.5%
same,growth at 10 µM,NCI-H322M,59.7%
same,growth at 10 µM,OVCAR-5,119%
same,inhibition of growth at 10 µM,CAKI-1 [14],64.4%
same,growth at 10 µM,HL-60(TB),14%
same,growth at 10 µM,BT-549,78.1%
same,inhibition of growth at 10 µM,SN12C [15],49.1%
same,growth at 10 µM,NCI-H522 [16],67.7%
same,growth at 10 µM,MDA-MB-468 [17],113%
same,growth at 10 µM,TK-10,79.9%
same,inhibition of growth at 10 µM,SK-OV-3 [18],10.6%
same,inhibition of growth at 10 µM,SF-539,45.3%
same,growth at 10 µM,SW-620,66.9%
same,inhibition of growth at 10 µM,MOLT-4,50.4%
same,inhibition of growth at 10 µM,MDA-MB-468 [19],< 10%
same,growth at 10 µM,HCT-15,25.1%
same,growth at 10 µM,A549 [20],23.5%
same,growth at 10 µM,COLO 205,68.1%
C/C=C(/C)C(=O)O[C@@H]1CC(C)(C)C[C@H]2C3=CC[C@@H]4[C@@]5(C)CCC(=O)C(C)(C)[C@@H]5CC[C@@]4(C)[C@]3(C)CC[C@@]12C(=O)O [LANTADENE A],inhibition of growth at 10 µM,DU-145 [1],17.4%
same,growth at 10 µM,CCRF-CEM,43.6%
same,growth at 10 µM,SN12C [2],52.4%
same,inhibition of growth at 10 µM,SNB-19,40.6%
same,inhibition of growth at 10 µM,HOP-62,24.4%
same,inhibition of growth at 10 µM,UO-31,57.4%
same,growth at 10 µM,UACC-257,70%
same,inhibition of growth at 10 µM,786-0,55.5%
same,inhibition of growth at 10 µM,SF-268,25.9%
same,inhibition of growth at 10 µM,U-251 [3],39.9%
same,growth at 10 µM,CAKI-1 [4],48.4%
same,inhibition of growth at 10 µM,NCI-H522 [5],33.9%
same,inhibition of growth at 10 µM,[6],26.9%
same,growth at 10 µM,DU-145 [7],82.6%
same,inhibition of growth at 10 µM,SF-295,72.3%
same,growth at 10 µM,U-251 [8],60.1%
same,inhibition of growth at 10 µM,HCT-116,66%
same,inhibition of growth at 10 µM,MDA-MB-231,24.3%
same,growth at 10 µM,SK-OV-3 [9],90.1%
same,growth at 10 µM,SK-MEL-28 [10],82.7%
same,inhibition of growth at 10 µM,ACHN,46.1%
same,inhibition of growth at 10 µM,A549 [11],60.8%
same,inhibition of growth at 10 µM,KM12,60%
same,inhibition of growth at 10 µM,A498,23.8%
same,growth at 10 µM,T47D,63.9%
same,growth at 10 µM,NCI-H226,82%
same,growth at 10 µM,SK-MEL-2,77.1%
same,growth at 10 µM,NCI-H23,58%
same,inhibition of growth at 10 µM,SK-MEL-28 [12],17.3%
same,inhibition of growth at 10 µM,MDA-MB-435,12.2%
same,growth at 10 µM,MCF7,54.7%
same,growth at 10 µM,[13],78.8%
same,growth at 10 µM,NCI-H322M,68.5%
same,growth at 10 µM,OVCAR-5,92.4%
same,inhibition of growth at 10 µM,CAKI-1 [14],51.6%
same,growth at 10 µM,HL-60(TB),-5.42%
same,growth at 10 µM,BT-549,44%
same,inhibition of growth at 10 µM,SN12C [15],47.6%
same,growth at 10 µM,NCI-H522 [16],66.1%
same,growth at 10 µM,MDA-MB-468 [17],50.8%
same,growth at 10 µM,TK-10,83.3%
same,inhibition of growth at 10 µM,SK-OV-3 [18],< 10%
same,inhibition of growth at 10 µM,SF-539,21.8%
same,growth at 10 µM,SW-620,68.7%
same,inhibition of growth at 10 µM,MOLT-4,56.7%
same,inhibition of growth at 10 µM,MDA-MB-468 [19],49.2%
same,growth at 10 µM,HCT-15,30.2%
same,growth at 10 µM,A549 [20],39.2%
same,growth at 10 µM,COLO 205,78%
